In US9233127B2, “Compositions and methods for CXCR4 signaling and umbilical cord blood stem cell engraftment” (University of Virginia Patent Foundation, priority 2012, dated 2016):
“Also recorded” adds a separate entry of the source.

Tests used:
[1] = tested on: NFAT1; experiment: NFAT1 protein and miR-184 in UCB CD4 T-cells stimulated with αCD3/CD28 plus exogenous IFN-γ; type: cell-based, human; settings: for NFAT1 protein expression: CD3/28 stimulation 24 h, absence of monocytes, 1000 U/ml
Procedure: FIG. 22A-B—Rescue of NFAT1 protein in UCB CD4 T-cells during primary stimulation in the presence of exogenous IFN-γ. UCB CD4 T-cells were stimulated with αCD3/CD28 for 24 h with 1000 U/ml of exogenous rh-IFN-γ. Cell lysates were harvested and Western Blot was probed for NFAT1 and β-actin.

[2] = tested on: UCB T-cells; experiment: Cytoplasmic IFN-γ and NFAT1 expression in UCB T-cells during mitogen stimulation; type: cell-based, human; settings: for percentages of IFN-γ-expressing UCB T-cells: exogenous cytokine added during mitogen stimulation, IFN-γ 100 or 1,000 U/ml, 24 h
Procedure: To further test expression and regulation, exogenous IFN-γ was added (100 or 1,000 U/ml) during mitogen stimulation and cytoplasmic IFN-γ expression in UCB T-cells was measured.

[3] = tested on: murine BMNCs and CFU-GM progenitor cells; experiment: Migration of murine BMNCs and CFU-GM progenitors to SDF-1 gradient after cationic peptide priming; type: cell-based
Procedure: FIG. 8A-B—A) BM mononuclear cell and B) CFU-GM migration in response to an SDF-1 gradient after priming with LL-37 or hBD-2. Values are fold increases of migrated cells compared to media alone.
FIG. 17A-B—Cationic peptides released from granulocytes enhance responsiveness of HSPCs to SDF-1 gradient. […] Values are the fold increases of migrated cells compared to media alone. M, media alone; SDF-1 (L), 50 ng/ml; SDF-1 (H), 300 ng/ml; C3a, 1 μg/ml. * P<0.05 as compared with SDF-1 (50 ng/ml) alone. The data shown represent the combine results from four independent experiments carried out in triplicate per group (n=12).
We also evaluated the effect of complement fragment 5a (C5a). […] After leaving the BM, granulocytes undergo degranulation in response to plasma C5a and secrete cationic peptides, such as cathelicidin (LL-37) and β-defensin-2 (hBD-2). […] It was hypothesized that this response may be affected by the distribution of membrane lipids by cationic peptides. […] Direct confocal analysis of CXCR4 and lipid raft colocalization in the presence or absence of cationic peptides confirmed these findings.

[4] = tested on: CD34+ cells; experiment: Transwell chemotaxis of CD34+ cells to an SDF-1 gradient (priming); type: cell-based, human
Procedure: (§1) FIG. 11A-B—Effect of SLP and its components on chemotaxis of CD34^+ cells. Panel A: Chemotaxis of BM CD34^+ cells towards medium alone (control), SDF-1 low (10 ng/mL) alone, SLP (combined SLP from three patients), SDF-1 low+SLP, and SDF-1 high (300 ng/mL). Data are pooled from quadruplicate samples from three independent experiments. *p<0.00001. Panel B: Chemotaxis of UCB CD34^+ cells to medium alone (control), SDF-1 low (10 ng/mL) alone and SDF-1 low (10 ng/mL)+uPAR (1 μg/mL) or +ICAM (1 μg/mL) or +VCAM (1 μg/mL) or +FN (2 μg/mL), or +FG (4 μg/mL) or +C3a (1 μg/mL). Data are pooled from quadruplicate samples from three independent experiments. * p<0.00001.
Chemotaxis of CD34^+ cells to medium alone (control), C3a (1 μg/ml), C3adesArg (1 μg/ml), SDF-1 low (10 ng/mL) alone, and SDF-1 low (10 ng/mL)+C3a low (0.1 μg/ml) or SDF-1 low (10 ng/mL)+C3a (1 μg/ml) or SDF-1 low (10 ng/mL)+C3adesArg (1 μg/ml). Data are pooled from quadruplicate samples from three independent experiments.* p<0.00001.
FIG. 13A-B—Chemotaxis of cells to an SDF-1 gradient is lipid raft-dependent. Panel A: Chemotaxis of CD34^+ cells to medium alone (control), SDF-1 (300 ng/mL) and SDF-1 (300 ng/mL) after preincubation for 1 hr with Amphotericin (10 μg/mL) or Nystatin (50 μg/mL). Cells were collected after chemotaxis from the lower chambers and plated in a clonogenic assay. The number of CFU-GM and BFU-E colonies formed by harvested cells is shown as a percentage of control values. Data are pooled from quadruplicate samples from three independent experiments. *p<0.0001. Panel B: Chemotaxis of CD34^+ cells towards medium alone (control), SDF-1 low (10 ng/mL) alone, or SDF-1 low with cells exposed to C3a (1 μg/mL). Cells pretreated before chemotaxis for 1 hr with MβCD (2.5 mM) are shown as gray bars. Data are pooled from quadruplicate samples from three independent experiments. * p<0.00001.
HSPCs from the mPB engraft faster compared to HSPCs aspirated from BM. To test the hypothesis that mPB-derived HSPCs are primed in their responses to SDF-1 by molecules present in SLP, we pooled together SLP from three patients and exposed BM or UCB CD34^+ cells to the SLP during chemotaxis to a low (10 ng/mL) dose of SDF-1.
To address this issue further, the formation of rafts in the cells was perturbed by MβCD, which depletes cholesterol from the cell membrane. The CD34^+ cells were pre-incubated with MβCD for 1 hr. Chemotaxis to a low dose of SDF-1 in the presence of C3a (in the upper chambers) was evaluated.

[5] = tested on: UCB CD34+ cells; experiment: Transwell chemotaxis of UCB CD34+ cells to SDF-1 (priming); type: cell-based, human; settings: for chemotactic response of UCB CD34+ cells to SDF-1: added to lower chambers with SDF-1 10 ng/mL, uPAR, ICAM, VCAM, C3a 1 μg/mL, FN 2 μg/mL, FG 4 μg/mL; for induction of chemotaxis of HSPCs when used alone: without SDF-1
Procedure: as §1
An increased migration of UCB-derived CD34^+ cells, as compared to BM and mPB CD34^+ cells was reported in transwell migration assays was previously reported. However, we noticed large inter-individual differences in the in vitro migratory ability of UCB CD34^+ cells, ranging from 1.1% to 14.3% for spontaneous migration and 3.1% to 62.3% for SDF-1-induced (300 ng/mL) migration. The lower migratory capacity in vitro of UCB-derived CD34^+ cells was not due to lower expression of CXCR4, but likely reflects the decreased migratory behavior of these cells. […] Based on this, we postulate that UCB HSPC responsiveness to an SDF-1 gradient varies with each collected UCB unit and that, in cases when responsiveness is low, UCB HSPCs should be identified and primed before infusion.
Moreover, as SLP contains several components that potentially could prime the responses of CD34^+ cells, (Example 2, FIG. 11, panel B) the most important being PMV and activated complement proteins such as anaphylatoxin C3a, soluble VCAM-1, soluble ICAM-1, uPAR, FG, and FN, we evaluated whether these factors could induce the chemotaxis of HSPCs when used alone. […] We also examined whether FG, FN, soluble VCAM-1, soluble ICAM-1, uPAR, and C3a prime HSPCs in their responses to SDF-1. […] To determine whether this also affects UCB CD34^+ clonogenic progenitors, UCB CD34^+ cells were collected from the lower chambers after the chemotaxis assay and plated in methylcellulose cultures. […] Moreover, a similar effect for the established hematopoietic cell lines Molt 4, Nalm-6, and THP-1 was also found (data not shown).

[6] = tested on: CXCR4; experiment: Western blot of CXCR4 in lipid raft membrane fractions of THP-1 cells; type: cell-based, human
Procedure: FIG. 15A-B—Western blot analysis of the colocalization of CXCR4 in fractions of cell membranes enriched in lipid rafts (fractions 3-5) and depleted of lipid rafts (fractions 9-11). Panel A: Hematopoietic THP-1 cells were stimulated by C3a (1 μg/mL) or desArgC3a (1 μg/mL) or not stimulated (control). CXCR4 was detected in these membrane fractions by Western blot along with ganglioside GM1, a marker of lipid rafts. Experiments were performed three times with similar results. Panel B: In control experiments, cells were pretreated for 1 hr with 10 mM MβCD. A representative study is shown.
Furthermore, direct evidence of the effect of priming agents on CXCR4 incorporation into membrane lipid rafts was obtained from Western blot analysis of CXCR4 expression in various fractions of cell membranes isolated according to their lipid raft content (Example 2, FIG. 15A-B). […] The role of C3a in incorporation of CXCR4 into membrane lipid rafts in UCB cells and involvement of other signaling molecules to this phenomenon will be evaluated in Aim 1.

Molecule: IFN-γ: exogenous rh-IFN-γ
- miR-184 expression (qRT-PCR) ([1]; CD3/28 primary stimulation): marked decrease; also recorded: observed to decrease
- NFAT1 protein expression [1]: increases in NFAT1 protein expression
- NFAT1 protein expression ([1]; listed as rh-IFN-γ): noted to increase
- percentages of IFN-γ-expressing UCB T-cells [2]: nearly increased to that measured in adult T-cells
- NFAT1 expression and concomitant IFN-γ expression ([2]; mitogen (ConA) stimulation plus exogenous IFN-γ): strong increases
- IFN-γ expression ([2]; treatment with IFN-γ alone): did not stimulate IFN-γ expression
- NFAT1 expression ([2]; treatment with IFN-γ alone): only slightly increased

Molecule: MIP-3alpha: agonist of a membrane receptor that may bind the cationic peptides [reference compound]
- responsiveness of hematopoietic progenitors to plasma SDF-1 (priming effect) [3]: did not show similar priming effects

Molecule: TNF-α
- percentages of IFN-γ-expressing UCB T-cells [2]: did not result in up-regulation

Molecule: desArgC3a: fragment of C3a where the end arginine residue is cleaved; 76 residues; SEQ ID NO:2
- chemotaxis of human CD34+ cells to low-threshold doses of SDF-1 ([4]; SDF-1 low 10 ng/mL, C3a or C3adesArg 1 μg/ml): potentiate (prime) chemotaxis
- chemoattraction of CD34+ cells by the C3 cleavage fragment on its own ([4]; no SDF-1, 1 μg/ml): neither C3 cleavage fragments chemoattract
- responsiveness of UCB cells to SDF-1 gradient ([5]; UCB-derived CD34+ cells exposed/primed): significantly increase the responsiveness
- incorporation of Rac-1 into membrane lipid rafts [6]: increased the incorporation of Rac-1
- incorporation of CXCR4 into GM1-enriched membrane lipid rafts (fractions 3-5) ([6]; 1 μg/mL): stimulates incorporation of CXCR4

B1: soluble VCAM-1: soluble VCAM-1, component of SLP (protein, UniProt P19320 25-698, looked up)
extracellular domain: FKIETTPESRYLAQIGDSVSLTCSTTGCESPFFSWRTQIDSPLNGKVTNEGTTSTLTMNPVSFGNEHSYLCTATCESRKLEKGIQVEIYSFPKDPEIHLSGPLEAGKPITVKCSVADVYPFDRLEIDLLKGDHLMKSQEFLEDADRKSLETKSLEVTFTPVIEDIGKVLVCRAKLHIDEMDSVPTVRQAVKELQVYISPKNTVISVNPSTKLQEGGSVTMTCSSEGLPAPEIFWSKKLDNGNLQHLSGNATLTLIAMRMEDSGIYVCEGVNLIGKNRKEVELIVQEKPFTVEISPGPRIAAQIGDSVMLTCSVMGCESPSFSWRTQIDSPLSGKVRSEGTNSTLTLSPVSFENEHSYLCTVTCGHKKLEKGIQVELYSFPRDPEIEMSGGLVNGSSVTVSCKVPSVYPLDRLEIELLKGETILENIEFLEDTDMKSLENKSLEMTFIPTIEDTGKALVCQAKLHIDDMEFEPKQRQSTQTLYVNVAPRDTTVLVSPSSILEEGSSVNMTCLSQGFPAPKILWSRQLPNGELQPLSENATLTLISTKMEDSGVYLCEGINQAGRSRKEVELIIQVTPKDIKLTAFPSESVKEGDTVIISCTCGNVPETWIILKKKAETGDTVLKSIDGAYTIRKAQLKDAGVYECESKNKVGSQLRSLTLDVQGRENNKDYFSPE
modifications: extracellular domain
notes: soluble VCAM-1, component of SLP
- chemotactic response of UCB CD34+ cells to SDF-1 [5]: increased the chemotactic response
- induction of chemotaxis of HSPCs when used alone [5]: no evidence that they did

B2: soluble ICAM-1: soluble ICAM-1, component of SLP (protein, UniProt P05362 28-480, looked up)
extracellular domain: QTSVSPSKVILPRGGSVLVTCSTSCDQPKLLGIETPLPKKELLLPGNNRKVYELSNVQEDSQPMCYSNCPDGQSTAKTFLTVYWTPERVELAPLPSWQPVGKNLTLRCQVEGGAPRANLTVVLLRGEKELKREPAVGEPAEVTTTVLVRRDHHGANFSCRTELDLRPQGLELFENTSAPYQLQTFVLPATPPQLVSPRVLEVDTQGTVVCSLDGLFPVSEAQVHLALGDQRLNPTVTYGNDSFSAKASVSVTAEDEGTQRLTCAVILGNQSQETLQTVTIYSFPAPNVILTKPEVSEGTEVTVKCEAHPRAKVTLNGVPAQPLGPRAQLLLKATPEDNGRSFSCSATLEVAGQLIHKNQTRELRVLYGPRLDERDCPGNWTWPENSQQTPMCQAWGNPLPELKCLKDGTFPLPIGESVTVTRDLEGTYLCRARSTQGEVTRKVTVNVLSPRYE
modifications: extracellular domain
notes: soluble ICAM-1, component of SLP
- chemotactic response of UCB CD34+ cells to SDF-1 [5]: increased the chemotactic response
- induction of chemotaxis of HSPCs when used alone [5]: no evidence that they did
